Laboratory results taken from patent US12685777B2, “Compositions, systems, and methods for modulating a target gene” (The Board of Trustees of the Leland Stanford Junior …, priority 2022, dated 2026).

Tests used:
BCL6 and BRD4 = biological target: T1, BCL6 and BRD4 (Homo sapiens, UniProt O60885+P41182); test: BCL6-BRD4 nanoBRET assay in HEK cells; format: cell-based; conditions: C- and N-terminally labeled BCL6 with N-terminally labeled BRD4, HEK cells
T1 construct: N-terminal fusion of HaloTag to full-length BCL6; N-terminal fusion of nanoLuc (nano-luciferase) to full-length BRD4 (Promega #N169A); host or cells: HEK293T
Procedure: The conditions and methods for nanoBRET, a well-recognized assay of in vivo target engagement, are described in PMID 26006698.
A 12-point dose-response curve with 3 technical replicates for each TCIP was carried out and corrected BRET ratios were calculated according to manufacturer assay protocol (Promega #TM439). Data was fit using the R package drc using the four-parameter log-logistic function.

BRD4^BD1 = biological target: T2, BRD4^BD1 (Homo sapiens, UniProt O60885); test: Isothermal calorimetry (ITC), binary titration; format: binding; conditions: read-out: KD BRD4:TCIP1
T2 construct: 6xHis-TEV (N, cleaved yes)
From the text: The first one or two injections and outliers from instrument noise were routinely excluded. Data was fit to a one-site model using MicroCal LLC Origin software.
One reason for a broadening of the hook effect is the formation of cooperative protein-protein interactions induced by the drug, such as a molecular glue.

KARPAS422 [1] = test: Cell cycle and TUNEL analysis in KARPAS422 cells; format: cell-based, human
Procedure: Cells were incubated for 15 minutes at RT, then immediately measured on a BD Accuri. Gates were drawn based off single-stain and no-stain controls. For cell cycle and TUNEL analysis, cells plated at 1 M/mL were treated with drug for indicated timepoints and doses and pulsed with 10 μM ethynyl-EdU (Thermo #C10424) for 2 hours prior to harvesting on ice. 1 M cells were counted and washed in 2.5% FBS/PBS. Cells were resuspended at 10 M/mL and fixed in 4% PFA, washed, and permeabilized in 0.5% Triton-X100/PBS. […] Gates were drawn based off single-stain and no-stain controls and kept constant across conditions. Cancers can evade cell killing by many chemotherapeutics that function only during a specific stage of the cell cycle. […] The assay allows the analysis of the percentage of apoptotic cells in each cell population: G0/G1, G2/M, and S phase cells (FIG. 34). […] The finding implies that unlike many conventional chemotherapeutics, BRD4-BCL6-TCIPs could kill cancer cells without periods of potential insensitivity.

[2] = Mouse tolerability and pharmacokinetic study; format: in vivo
Procedure: Vehicle was the same formulation (5/5/80 DMSO/Tween-80/Saline). The formulation was checked to be a clear solution and after administration, the animal was put back in its cage. For PK properties, plasma levels were measured at 0, 5, 15, 30, 60, 120, 240, 360, and 480 mins after drug administration. For tolerability work, bodyweights and observation of animal health were recorded each day through 5 days of dosing once daily. After 5 days, tissues were collected 8 hours after the last drug administration and split into one part for RNA-seq, homogenized in TRIzoI (Thermo #15596026), another part for histology, snap-frozen, and another part for measurement of drug levels where molar concentrations were recorded with the assumption of 1 g tissue ~1 mL. FFPE blocks (on snap-frozen tissue) and H & E staining were done by the Stanford Histology/Pathology Service Core, by Prof. Hannes Vogel, MD and Pauline Chu.
After treatment, mouse tissue was harvested for RNA-seq and histology.

KARPAS422 [3] = test: Annexin V / 7-AAD apoptosis assay in KARPAS422 cells; format: cell-based, human
Procedure: For annexin V assays, 500,000 cells plated at 1 M/mL treated with drug for indicated timepoints and doses were harvested on ice and washed twice in 2.5% FBS/PBS. 2.5 μL of 7-AAD and 2.5 μL of FITC-Annexin V (Biolegend #640922) were added. Cells were incubated for 15 minutes at RT, then immediately measured on a BD Accuri. Gates were drawn based off single-stain and no-stain controls. For cell cycle and TUNEL analysis, cells plated at 1 M/mL were treated with drug for indicated timepoints and doses and pulsed with 10 μM ethynyl-EdU (Thermo #C10424) for 2 hours prior to harvesting on ice. 1 M cells were counted and washed in 2.5% FBS/PBS. Cells were resuspended at 10 M/mL and fixed in 4% PFA, washed, and permeabilized in 0.5% Triton-X100/PBS. […] After washes, the sample was incubated with 2 μL 7-AAD and 5 μL RNAseA for 30 minutes at RT in the dark, washed, and measured on a BD Accuri. Gates were drawn based off single-stain and no-stain controls and kept constant across conditions.

[4] = test system: primary human tonsillar lymphocytes; test: Cell viability of primary human tonsillar lymphocytes; format: cell-based; conditions: 72 hours, read-out: EC50 of killing of lymphocytes
Procedure: Lymphoma and leukemia cells were cultured in RPMI-1640 (ATCC 30-2001)+10% FBS with antibiotics (100× PenStrep GIBCO #15140122). Primary human fibroblasts were obtained from ATCC (#CRL2522), cultured in DMEM+10% FBS with antibiotics and used at passages 3-5. Primary human tonsillar lymphocytes were a kind gift from M. M. Davis. Cells were routinely checked for mycoplasma and immediately checked upon suspicion. No cultures tested positive.
(§1) 30,000 cells were plated in 100 μL media per well of a 96 well plate and treated with drug for indicated times and doses. A resazurin-based indicator of cell health (PrestoBlue, ThermoFisher #P50200) was added for 1.5 hours after which the fluorescence ratio at 560/590 nm was recorded. The background fluorescence was subtracted and the signal was normalized to DMSO-treated cells. EC50 measurements on cell lines were done with 4 biological repeats by separate cell passages maintained by 3 independent investigators. Fit of dose-response curves to data and statistical analysis was performed using drc package in R using the four-parameter log-logistic function.
After treatment, mouse tissue was harvested for RNA-seq and histology. […] Serum concentrations after 8 hours were -100 to 400-fold higher than therapeutic doses (FIG. 37, Panel C).

OCILY19 = test: Cell viability of OCILY19 DLBCL cells; format: cell-based
Procedure: as §1
The level of expression of BCOR, NCOR and SMRT, which engage PRC and HDACs to produce epigenetic suppression of target genes varied among the cell lines and could also contribute to the variation in sensitivity. […] Among the cell lines tested there was no evidence that killing required TP53, nor was there evidence of repression of killing by endogenous BCL2 levels (FIG. 28, Panel B).

[5] = C57BL/6 mice, 10 mg/kg IP once daily for 5 days
[6] = RNA-seq, 10 mg/kg IP q.d. 5 days

Row | Structure (SMILES) | nanoBRET signal of proximity (BCL6 and BRD4) | Kd (BRD4^BD1) [nM] | Cell cycle block (KARPAS422 [1]; KARPAS422) | Cell cycle phases in which cell death occurs (TUNEL) (KARPAS422 [1]; KARPAS422, 100 nM) | Body weight change [2, 5] | H & E staining and examination of tissue [2, 5] | Tolerability [2, 5] | Genes downregulated in the liver [2, 6] [genes] | Genes downregulated in the lung [2, 6] [genes] | Genes downregulated in the spleen [2, 6] | Genes upregulated in the liver [2, 6] [genes] | Genes upregulated in the lung [2, 6] [genes] | Genes upregulated in the spleen [2, 6] | Time to detectable apoptosis (KARPAS422 [3]) [h] | EC50 [4] [nM] | Response of a DLBCL line with no detectable BCL6 (OCILY19)
1 | CNC(=O)COc1cc2cc(Nc3nc(N4CCC(C(=O)NCCCCCCCNC(=O)C[C@@H]5N=C(c6ccc(Cl)cc6)c6c(sc(C)c6C)-n6c(C)nnc65)CC4)ncc3Cl)cc(OC)c2n(C)c1=O [JWZ-7-7, (S)-1-(5-chloro-4-((8-methoxy-1-methyl-3-(2-(methylamino)-2-oxoethoxy)-2-oxo-1,2-dihydroquinolin-6-yl)amino)pyrimidin-2-yl)-N-(7-(2-(4-(4-chlorophenyl)-2,3,9-trimethyl-6H-thieno[3,2-f][1,2,4]triazolo[4,3-a][1,4]diazepin-6-yl)acetamido)heptyl)piperidine-4-carboxamide] | generated a specific signal of proximity |  |  |  |  |  |  |  |  |  |  |  |  |  |  | 
2 | CNC(=O)COc1cc2cc(Nc3nc(N4CCC(C(=O)NCCCCCCCNC(=O)C[C@@H]5N=C(c6ccc(Cl)cc6)c6c(sc(C)c6C)-n6c(C)nnc65)CC4)ncc3Cl)cc(OC)c2n(C)c1=O [TCIP1] |  | 5080 | both a G1/S and G2/M block | all phases of the cell cycle | no significant changes in mouse body weight | did not reveal noticeable abnormalities | well-tolerated with no adverse effects noticed | 167 | 204 | 2,471 genes | 255 | 301 | 2,785 genes | 4 to 8 | 210 | little or no response
